According to ChEMBL document CHEMBL3885861, “Open TG-GATES”:

Species: Rattus norvegicus
Experiment: Open TG-GATES - Regimen: Daily Repeat
Format: toxicity, organism-based, Sprague-Dawley
Parameters: regimen Daily Repeat, gender Male, age 6 weeks
Conditions: in vivo, po, 100 mg/kg, route gavage, dose level Middle; for APTT / Bas / Eos / Fbg / Hb / Ht / Lym / MCH / MCHC / MCV / Mono / Neu / PT / Plat / RBC / Ret / WBC: tissue Blood; for KIDNEY_L / KIDNEY_R / KIDNEY_TOTAL: tissue Kidney; for LIVER: tissue Liver; for A/G / ALP / ALT / AST / BUN / CRE / Ca / Cl / DBIL / GLC / IP / K / LDH / Na / PL / RALB / TBIL / TC / TG / TP / gamma-GTP: tissue Plasma

In the case of `CC(=O)Nc1ccc2c(c1)Cc1ccccc1-2` [2-ACETYLAMINOFLUORENE], the TERMINAL_BW (72 h, time 3 day) is reported as 202.9 g, the APTT (72 h, time 3 day) is reported as 20.1 s and the Bas (72 h, time 3 day) is reported as 0.8%. It also gave an Eos (72 h, time 3 day) of 0.8%, a Fbg (72 h, time 3 day) of 260.6 mg/dL and a Hb (72 h, time 3 day) of 15.7 g/dL. For the same compound, the Ht (72 h, time 3 day) was 45.1%, the Lym (72 h, time 3 day) was 72.4% and the MCH (72 h, time 3 day) was 21.9 pg. The MCHC (72 h, time 3 day) was 34.9%, the MCV (72 h, time 3 day) was 62.7 fL and the Mono (72 h, time 3 day) was 2.8%. For the same compound, the Neu (72 h, time 3 day) was 22.4%, the PT (72 h, time 3 day) was 12.7 s and the Plat (72 h, time 3 day) was 133.7 x10_4/uL. It also gave an RBC (72 h, time 3 day) of 718.2 x10_4/ul, a Ret (72 h, time 3 day) of 3.6% and a WBC (72 h, time 3 day) of 85 x10_2/uL. The KIDNEY_L (72 h, time 3 day) was 1 g, the KIDNEY_R (72 h, time 3 day) was 0.9 g and the KIDNEY_TOTAL (72 h, time 3 day) was 1.9 g. The LIVER (72 h, time 3 day) was 8.8 g, the A/G (72 h, time 3 day) was 1.4 and the ALP (72 h, time 3 day) was 615.4 IU/L. For the same compound, the ALT (72 h, time 3 day) was 24 IU/L, the AST (72 h, time 3 day) was 70.8 IU/L and the BUN (72 h, time 3 day) was 11.4 mg/dL. It also gave a CRE (72 h, time 3 day) of 0.4 mg/dL, a Ca (72 h, time 3 day) of 10.1 mg/dL and a Cl (72 h, time 3 day) of 104.4 meq/L. The DBIL (72 h, time 3 day) was 0.076 mg/dL, the GLC (72 h, time 3 day) was 191 mg/dL and the IP (72 h, time 3 day) was 8.2 mg/dL. For the same compound, the K (72 h, time 3 day) was 4.3 meq/L, the LDH (72 h, time 3 day) was 220.8 IU/L and the Na (72 h, time 3 day) was 141.6 meq/L. The PL (72 h, time 3 day) was 86.2 mg/dL, the RALB (72 h, time 3 day) was 2.9 g/dL and the TBIL (72 h, time 3 day) was 0.1 mg/dL. For the same compound, the TC (72 h, time 3 day) was 45.4 mg/dL, the TG (72 h, time 3 day) was 47.6 mg/dL and the TP (72 h, time 3 day) was 5 g/dL. It also gave a gamma-GTP (72 h, time 3 day) of 1.2 IU/L, a TERMINAL_BW ([…], time 7 day) of 214.1 g and a TERMINAL_BW ([…], time 14 day) of 247.1 g. For the same compound, the TERMINAL_BW ([…], time 28 day) was 286 g, the APTT ([…], time 7 day) was 20.2 s and the Bas ([…], time 7 day) was 0.8%. For the same compound, the Eos ([…], time 7 day) was 0.6%, the Fbg ([…], time 7 day) was 167.8 mg/dL and the Hb ([…], time 7 day) was 14.7 g/dL. It also gave a Ht ([…], time 7 day) of 41.6%, a Lym ([…], time 7 day) of 83% and an MCH ([…], time 7 day) of 20.5 pg. It also gave an MCHC ([…], time 7 day) of 35.3%, an MCV ([…], time 7 day) of 58.1 fL and a Mono ([…], time 7 day) of 2.8%. For the same compound, the Neu ([…], time 7 day) was 12.2%, the PT ([…], time 7 day) was 13.8 s and the Plat ([…], time 7 day) was 174.6 x10_4/uL. The RBC ([…], time 7 day) was 715.8 x10_4/ul, the Ret ([…], time 7 day) was 1.2% and the WBC ([…], time 7 day) was 106.3 x10_2/uL. It also gave an APTT ([…], time 14 day) of 18.3 s, a Bas ([…], time 14 day) of 0.8% and an Eos ([…], time 14 day) of 0%. For the same compound, the Fbg ([…], time 14 day) was 106.8 mg/dL, the Hb ([…], time 14 day) was 13.1 g/dL and the Ht ([…], time 14 day) was 38.5%. It also gave a Lym ([…], time 14 day) of 74.6%, an MCH ([…], time 14 day) of 19.7 pg and an MCHC ([…], time 14 day) of 34.1%. The MCV ([…], time 14 day) was 57.7 fL, the Mono ([…], time 14 day) was 3% and the Neu ([…], time 14 day) was 21%. For the same compound, the PT ([…], time 14 day) was 15.2 s, the Plat ([…], time 14 day) was 144.4 x10_4/uL and the RBC ([…], time 14 day) was 667 x10_4/ul. It also gave a Ret ([…], time 14 day) of 6.3%, a WBC ([…], time 14 day) of 169.9 x10_2/uL and an APTT ([…], time 28 day) of 22.1 s. It also gave a Bas ([…], time 28 day) of 0.2%, an Eos ([…], time 28 day) of 0% and a Fbg ([…], time 28 day) of 74.4 mg/dL. The Hb ([…], time 28 day) was 13.6 g/dL, the Ht ([…], time 28 day) was 40.8% and the Lym ([…], time 28 day) was 61.6%. The MCH ([…], time 28 day) was 20.5 pg, the MCHC ([…], time 28 day) was 33.4% and the MCV ([…], time 28 day) was 61.3 fL. It also gave a Mono ([…], time 28 day) of 2.8%, a Neu ([…], time 28 day) of 34.2% and a PT ([…], time 28 day) of 18.8 s. The Plat ([…], time 28 day) was 149.9 x10_4/uL, the RBC ([…], time 28 day) was 667.6 x10_4/ul and the Ret ([…], time 28 day) was 6.6%. The WBC ([…], time 28 day) was 220.7 x10_2/uL, the KIDNEY_L ([…], time 7 day) was 1 g and the KIDNEY_R ([…], time 7 day) was 0.9 g. It also gave a KIDNEY_TOTAL ([…], time 7 day) of 1.9 g, a KIDNEY_L ([…], time 14 day) of 1.1 g and a KIDNEY_R ([…], time 14 day) of 1.1 g. The KIDNEY_TOTAL ([…], time 14 day) was 2.2 g, the KIDNEY_L ([…], time 28 day) was 1.3 g and the KIDNEY_R ([…], time 28 day) was 1.3 g. The KIDNEY_TOTAL ([…], time 28 day) was 2.5 g, the LIVER ([…], time 7 day) was 9.2 g and the LIVER ([…], time 14 day) was 10.6 g. The LIVER ([…], time 28 day) was 11.7 g, the A/G ([…], time 7 day) was 1.5 and the ALP ([…], time 7 day) was 822.2 IU/L. It also gave an ALT ([…], time 7 day) of 33.8 IU/L, an AST ([…], time 7 day) of 83.4 IU/L and a BUN ([…], time 7 day) of 11.4 mg/dL. It also gave a CRE ([…], time 7 day) of 0.4 mg/dL, a Ca ([…], time 7 day) of 9.8 mg/dL and a Cl ([…], time 7 day) of 105.4 meq/L. For the same compound, the DBIL ([…], time 7 day) was 0.098 mg/dL, the GLC ([…], time 7 day) was 170.6 mg/dL and the IP ([…], time 7 day) was 6 mg/dL. For the same compound, the K ([…], time 7 day) was 4.1 meq/L, the LDH ([…], time 7 day) was 274.8 IU/L and the Na ([…], time 7 day) was 139.8 meq/L. The PL ([…], time 7 day) was 93 mg/dL, the RALB ([…], time 7 day) was 2.6 g/dL and the TBIL ([…], time 7 day) was 0.2 mg/dL. It also gave a TC ([…], time 7 day) of 37.6 mg/dL, a TG ([…], time 7 day) of 75.2 mg/dL and a TP ([…], time 7 day) of 4.4 g/dL. For the same compound, the gamma-GTP ([…], time 7 day) was 1 IU/L, the A/G ([…], time 14 day) was 1.3 and the ALP ([…], time 14 day) was 791.2 IU/L. The ALT ([…], time 14 day) was 41 IU/L, the AST ([…], time 14 day) was 83.6 IU/L and the BUN ([…], time 14 day) was 13.6 mg/dL. It also gave a CRE ([…], time 14 day) of 0.5 mg/dL, a Ca ([…], time 14 day) of 9.6 mg/dL and a Cl ([…], time 14 day) of 103.4 meq/L. The DBIL ([…], time 14 day) was 0.6 mg/dL, the GLC ([…], time 14 day) was 157 mg/dL and the IP ([…], time 14 day) was 7.8 mg/dL. The K ([…], time 14 day) was 4.1 meq/L, the LDH ([…], time 14 day) was 206 IU/L and the Na ([…], time 14 day) was 141 meq/L. For the same compound, the PL ([…], time 14 day) was 104.8 mg/dL, the RALB ([…], time 14 day) was 2.3 g/dL and the TBIL ([…], time 14 day) was 0.7 mg/dL. For the same compound, the TC ([…], time 14 day) was 43.4 mg/dL, the TG ([…], time 14 day) was 64.6 mg/dL and the TP ([…], time 14 day) was 4.1 g/dL. For the same compound, the gamma-GTP ([…], time 14 day) was 2 IU/L, the A/G ([…], time 28 day) was 1.1 and the ALP ([…], time 28 day) was 1005.4 IU/L. For the same compound, the ALT ([…], time 28 day) was 58.8 IU/L, the AST ([…], time 28 day) was 126.6 IU/L and the BUN ([…], time 28 day) was 12.4 mg/dL. It also gave a CRE ([…], time 28 day) of 0.4 mg/dL, a Ca ([…], time 28 day) of 8.9 mg/dL and a Cl ([…], time 28 day) of 104.6 meq/L. The DBIL ([…], time 28 day) was 1.2 mg/dL, the GLC ([…], time 28 day) was 146 mg/dL and the IP ([…], time 28 day) was 6.7 mg/dL. For the same compound, the K ([…], time 28 day) was 3.9 meq/L, the LDH ([…], time 28 day) was 264.4 IU/L and the Na ([…], time 28 day) was 141 meq/L. It also gave a PL ([…], time 28 day) of 128.8 mg/dL, an RALB ([…], time 28 day) of 2 g/dL and a TBIL ([…], time 28 day) of 1.6 mg/dL. The TC ([…], time 28 day) was 55.4 mg/dL, the TG ([…], time 28 day) was 76.2 mg/dL and the TP ([…], time 28 day) was 3.9 g/dL. It also gave a gamma-GTP ([…], time 28 day) of 9.6 IU/L.
